Measured values from US20040254213A1, “Use of bicyclo compounds for treating alzheimer's disease” (priority 2001, published 2004).

| melting point [°C] | Compound |
| --- | --- |
| 145.5 to 147 | O=C1CC2(Cc3ccccc3)CN(Cc3ccccc3)CC([C@@H](O)Cc3ccccc3)(C1)C2O (mixture of isomers) [Compound 18, 5(RS)-methylpheny-9(RS)-hydroxy-1(RS)-((1′-hydroxy)-2′-phenyl)-ethyl-3-benzyl-3-azabicyclo[3.3.1]nonan-7-one] |
| 138 to 141 | CC(C)CN1CC2(Cc3ccccc3)CC(=O)CC(C(O)Cc3ccccc3)(C1)C2O (racemic) [Compound 16, 5(RS)-methylphenyl-9(RS)-hydroxy-1(RS)-((1′-hydroxy)-2′-phenyl)-ethyl-3-(2″-methyl)propyl-3-azabicyclo[3.3.1] nonan-7-one] |
| 164 to 165 | CC(C)CN1CC2(Cc3ccccc3)CC(=O)CC([C@@H](O)Cc3ccccc3N)(C1)C2O (mixture of isomers) [Compound 20] |
